According to patent US20170000908A1, “A MICELLAR PARTICLE” (AGENCY FOR SCIENCE, TECHNOLOGY AND RESEARCH, priority 2013, published 2017):

Key:
[1] = Quantum yield measured against fluorescence standard solutions; type: physicochemical; settings: dye in THF
Procedure: Quantum yield was measured with respect to the fluorescence standard solution, namely fluorescein (Ethanol; QY=0.79), and rhodamine B (Ethanol; QY=0.49). Fluorescein was used as a reference for Coumarin545T@SiO2, whereas rhodamine B was used for DCJTB@SiO2. The procedures involved diluting the fluorescent silica nanocapsules and the fluorescence standard solution with their respective solvent to have the same absorbance at excitation wavelength (460 nm for fluorescein; 490 nm for rhodamine B). Quantum yields for fluorescent silica nanocapsules were measured by dividing, the integrated emission area of their fluorescent spectrum against that of fluorecein or rhodamine B in Ethanol. […] In addition, the lifetime of Coumarin545T@SiO2 was determined to be 3.38 ns, while the lifetime of coumarin545T in THF was determined to be 2.86 ns. Similarly, the lifetime of DCJTB@SiO2 was determined to be 3.40 ns, while the lifetime of DCJTB in THF was determined to be 2.50 ns.

[2] = UV-Vis and photoluminescent spectra (emission peak, fwhm); type: physicochemical; settings: dye in THF
From the text: The UV-Vis and photoluminescent spectra of Coumarin545T@SiO2 are shown in FIG. 2 while those of DCJTB@SiO2 are shown in FIG. 3.
(§1) FIG. 4 is a graph showing the time-resolved photoluminescence decay of Coumarin545T dissolved in THF and that when encapsulated inside the core of the nanocapsules. FIG. 5 is a graph showing the time-resolved photoluminescence decay of DCJTB dissolved in THF and that when encapsulated inside the core of the nanocapsules. […] Based on these figures, when compared to the photoluminescence behavior of the dye solutions (Coumarin545T or DCJTB) in their respective solvents, there is a significant red-shift in the emission peak for both of the silica nanocapsules, which should be ascribed to the π-π stacking of the dye molecules by encapsulation. The emission spectra of the nanocapsules are also broader than the dye solutions in their respective solvents. The silica coating could lead to improvement in the photostability of the dye molecules by limiting their contact with the outside environment, especially soluble oxygen molecules.

[3] = Photoluminescence lifetime by Time Correlated Single Photon Counting (TCSPC); type: physicochemical; settings: dye in THF; excited at 405 nm
Procedure: The photoluminescence lifetimes of the Coumarin545T@SiO2 and DCJTB@SiO2 samples were measured using a Time Correlated Single Photon Counting (TCSPC) module (PicoQuant PicoHarp 300 of PicoQuant of Berlin, Germany). The Coumarin545T@SiO2 and DCJTB@SiO2 samples were excited by using 405 nm line of a picosecond pulsed laser diode (PicoQuant PDL 800-B). The photoluminescence was dispersed through a monochromator (Acton SpectroPro 2300i) and detected with a micro channel plate photomultiplier tube (MCP-PMT) detector (Hamamatsu R3809U-50).
as §1, with “The silica coating could lead to improvement in the photostability of the dye molecules by limiting their contact with the outside environment, especially soluble oxygen molecules.” left out

[4] = Ethanol; cited from earlier work

SMILES	Quantum Yield (QY) [1]	fwhm [2]	λem [2]	Fluorescence Lifetime (τ) [3]	Quantum yield (QY) of fluorescence standard solution [4]
CC(C)(C)C1=CC(=C(C#N)C#N)C=C(/C=C/c2cc3c4c(c2)C(C)(C)CCN4CCC3(C)C)O1 [DCJTB]	0.99	73 nm	605 nm	2.50 ns	
CC1(C)CCN2CCC(C)(C)c3c2c1cc1cc(-c2nc4ccccc4s2)c(=O)oc31 [Coumarin 545T]	0.99	35 nm	504 nm	2.86 ns	
CCN(CC)c1ccc2c(-c3ccccc3C(=O)O)c3ccc(=[N+](CC)CC)cc-3oc2c1.[Cl-] [rhodamine B]					0.49
